Where a name gives a salt, the structure may show the parent alone. Read-outs that look alike come from different tables or passages of the source.
Molecular target: T1, human A3AR (Homo sapiens, UniProt P0DMS8)
T1 construct: expressed in transfected cells
T1 sequence (P0DMS8 1-318): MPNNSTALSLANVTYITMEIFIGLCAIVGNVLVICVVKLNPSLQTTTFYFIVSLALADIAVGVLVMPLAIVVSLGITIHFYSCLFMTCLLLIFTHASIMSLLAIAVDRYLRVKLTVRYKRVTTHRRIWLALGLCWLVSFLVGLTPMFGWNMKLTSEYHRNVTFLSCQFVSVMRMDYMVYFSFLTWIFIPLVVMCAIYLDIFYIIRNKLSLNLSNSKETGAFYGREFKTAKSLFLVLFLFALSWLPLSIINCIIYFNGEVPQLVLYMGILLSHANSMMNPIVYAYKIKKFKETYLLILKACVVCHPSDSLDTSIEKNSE
Assay: LOPAC library primary screen: single concentration (10 μM) inhibition of 25 nM CA200645 binding, PHERAstar FS
Conditions: for hit in LOPAC primary screen (inhibited the binding of CA200645 by >40%): 10 μM compound, 25 nM CA200645, A3AR CHO cells

[1] = compounds tested at 10 µM, % of control wells (1% DMSO and 25 nM CA200645), whole live cells expressing the A3AR, mean ± SD, three experiments in duplicate

SMILES | % 25 nM CA200645 binding | other results
Cc1cccc(-c2[nH]c(C(C)(C)C)nc2-c2ccc3nccnc3c2)n1 [SB-525334] | 76.3 ± 9.5% | 
C[N+]1(C)[C@@H]2CC[C@H]1C[C@@H](OC(=O)C(CO)c1ccccc1)C2 (stereo partly drawn) [Atropine methyl bromide] |  | % 25 nM CA200645 binding [1]: 102.2 ± 7.3%
O=C1C(SCCO)=C(SCCO)C(=O)c2ccccc21 [NSC 95397] | 96.3 ± 15.0% | 
O=[N+]([O-])c1cccc2cn[nH]c12 [7-Nitroindazole] | 126.0 ± 15.1% | 
CN1CC[C@@]2(C)c3cc(O)ccc3N(C)[C@@H]12.O=C(O)/C=C/C(=O)O [(-)-Eseroline fumarate] | 105.8 ± 9.3% | 
O=C(O)C1CCCNC1 (racemic) [(±)-Nipecotic acid] | 101.9 ± 5.9% | 
N.N.N.Nc1ncnc2c1ncn2C1OC(COP(=O)(O)OP(=O)(O)OP(=O)(O)OP(=O)(O)OC[C@H]2O[C@@H](n3cnc4c(N)ncnc43)C(O)C2O)[C@@H](O)C1O (stereo in doubt) | 101.2 ± 10.2% | 
Cc1ccc(-c2cc(C(F)(F)F)nn2-c2ccc(S(N)(=O)=O)cc2)cc1 [Celecoxib] | 72.6 ± 20.4% | 
CCCCCCCCCCCCCCC[C@H](O)[C@H](N)CO (racemic) [DL-erythro-Dihydrosphingosine] | 98.5 ± 11.2% | 
c1ccc(C2CC2)c(OCC2=NCCN2)c1 [Cirazoline hydrochloride] |  | % 25 nM CA200645 binding [1]: 105.5 ± 7.7%
CC(C)[C@H]1c2ccc(F)cc2CC[C@@]1(CCN(C)CCCc1nc2ccccc2[nH]1)OC(=O)C1CC1 [NNC 55-0396] | 109.8 ± 31.5% | 
Cl.NCCCCC(=O)O [5-Aminovaleric acid hydrochloride] | 97.9 ± 5.1% | 
CC[C@]1(O)C[C@@H]2CN(CCc3c([nH]c4ccccc34)[C@@](C(=O)OC)(c3cc4c(cc3OC)N(C)[C@H]3[C@@](O)(C(=O)OC)[C@H](OC(C)=O)[C@]5(CC)C=CCN6CC[C@]43[C@@H]65)C2)C1.O=S(=O)(O)O [Vinblastine sulfate salt] | 98.2 ± 16.0% | 
C[C@]12CC[C@@H]3c4ccc(O)cc4C[C@@H](CCCCCCCCC[S+]([O-])CCCC(F)(F)C(F)(F)F)[C@H]3[C@@H]1CC[C@@H]2O (stereo partly drawn) [Fulvestrant] | 100.4 ± 12.1% | 
Cl.Cl.O=c1ccc2[nH]cc(C3=CCNCC3)c2[nH]1 [CP-93129 dihydrochloride hydrate] | 102.1 ± 6.9% | 
COc1cc(C(O)C(=O)O)ccc1O (racemic) [(±)-Vanillylmandelic acid] | 97.4 ± 12.9% | 
Br.CCSC(=N)N [S-Ethylisothiourea hydrobromide] | 91.5 ± 10.5% | 
CC1(C)CCC=[N+]1[O-] [5,5-Dimethyl-1-pyrroline-N-oxide] | 106.0 ± 5.3% | 
O=C(O)/C=C\C(=O)O.c1cnc(N2CCN(Cc3ccc4c(c3)OCO4)CC2)nc1 [Piribedil maleate] | 97.8 ± 1.7% | 
C#CCn1c(=O)c2c(ncn2C)n(C)c1=O [DMPX, reference compound] |  | hit in LOPAC primary screen (inhibited the binding of CA200645 by >40%): identified

SMILES | % 25 nM CA200645 binding | other results
COc1cc2c(cc1OC)C1CC(=O)C(CC(C)C)CN1CC2 (stereo not drawn) [Tetrabenazine] | 91.3 ± 18.4% | 
COc1ccc(NC=O)c(C(=O)CCNC(C)=O)c1 [AFMK] | 100.0 ± 2.7% | 
C[C@]12CCC(=O)C=C1CC[C@@H]1[C@@H]2C(=O)C[C@@]2(C)[C@H]1CC[C@]2(O)C(=O)CO [Cortisone] | 94.0 ± 5.3% | 
N=C(N)c1ccc(N)cc1 [4-Aminobenzamidine dihydrochloride] |  | % 25 nM CA200645 binding (% of control wells (1% DMSO and 25 nM CA200645), compounds at 10 µM, whole live cells expressing the A3AR, mean ± SD, three experiments in duplicate): 97.4 ± 8.5%
COc1ccc2c(c1)CC[C@@H]1[C@@H]2CC[C@]2(C)[C@@H](NCCCCCCN3C(=O)CCC3=O)CC[C@@H]12 [U-73343] | 99.9 ± 5.3% | 
O=c1onc2n1-c1cc(Br)ccc1OC2 [NS 2028] | 100.2 ± 8.6% | 
CSc1ccc2c(c1)C(N1CCN(C)CC1)Cc1ccccc1S2 (stereo not drawn) [Methiothepin mesylate] |  | % 25 nM CA200645 binding [1]: 112.2 ± 9.4%
Cl.O=C(CCCCCN1CCN(c2ccccc2-c2ccccc2)CC1)NC1CCCc2ccccc21 (stereo not drawn) [LP 12 hydrochloride hydrate] | 93.7 ± 9.5% | 
CN(C)CCCC1(c2ccc(F)cc2)OCc2cc(C#N)ccc21 (stereo not drawn) [Citalopram hydrobromide] | 97.2 ± 4.4% | 
O=C(O)Cc1ccc(O)c(O)c1 [3,4-Dihydroxyphenylacetic acid] | 97.0 ± 9.9% | 
NC(=O)c1cc[n+](CC2=C(C(=O)[O-])N3C(=O)[C@@H](NC(=O)C(c4ccccc4)S(=O)(=O)[O-])[C@H]3SC2)cc1.O.[Na+] (stereo partly drawn) [Cefsulodin sodium salt hydrate] | 100.8 ± 6.6% | 
CCN(CC)CCOC(=O)c1cc(Cl)c(N)cc1OC.Cl [SDZ-205,557 hydrochloride] | 87.0 ± 9.3% | 
CNCC(O)c1ccc(O)c(O)c1.Cl (racemic) [(±)-Epinephrine hydrochloride] | 95.7 ± 7.0% | 
N[C@H]1CON=C1O [L-Cycloserine] | 98.0 ± 1.4% | 
Nc1ccc(CCN2CCN(c3cccc(C(F)(F)F)c3)CC2)cc1 [PAPP] | 95.6 ± 9.9% | 
CCCCCCC(=O)OC1CC(C)(C)NC(C)(C)C1.Cl [TMPH hydrochloride] | 95.1 ± 13.7% | 
O=C(O)CN(CCN(CC(=O)O)CC(=O)O)CCN(CC(=O)O)CC(=O)O [Diethylenetriaminepentaacetic acid] | 99.2 ± 10.9% | 
COc1ccccc1N1CCN(CCN(C(=O)C2CCCCC2)c2ccccn2)CC1.O=C(O)/C=C\C(=O)O [WAY-100635 maleate] | 90.8 ± 17.8% | 
Oc1cc2c(cc1O)CN(C(=S)NCCc1ccc(Cl)cc1)CCC2 [Capsazepine] |  | % 25 nM CA200645 binding [1]: 90.6 ± 11.8%
C#CCn1c(=O)c2c(ncn2C)n(C)c1=O [3,7-Dimethyl-1-propargylxanthine] | 94.8 ± 1.8% | 

SMILES | % 25 nM CA200645 binding | other results
CN(C)c1nc(N)c(C(=O)NC(=N)N)nc1Cl [5-(N,N-Dimethyl)amiloride hydrochloride] | 95.5 ± 2.7% | 
COC1=C(OC)C(=O)c2ccccc2C1=O [2,3-Dimethoxy-1,4-naphthoquinone] | 99.3 ± 8.8% | 
COC(=O)[C@H]1[C@H]2C[C@@H]3c4[nH]c5cc(OC)ccc5c4CCN3C[C@H]2C[C@@H](OC(=O)c2cc(OC)c(OC)c(OC)c2)[C@@H]1OC [Reserpine] | 83.8 ± 14.9% | 
Cn1c(=O)c2nc(C3CCCC3)[nH]c2n(C)c1=O [CPT, reference compound] |  | hit in LOPAC primary screen (inhibited the binding of CA200645 by >40%): not identified as hits
COc1ccc(-c2cc(=O)c3c(O)c(OC)c(OC)cc3o2)cc1O [Eupatorin] | 47.2 ± 12.7% | 
CN1CCN(C2=Nc3ccccc3Oc3ccc(Cl)cc32)CC1 [Loxapine succinate] | 80.2 ± 12.7% | 
CC(C)C[C@H]1C(=O)N2CCC[C@H]2[C@]2(O)O[C@](NC(=O)[C@@H]3C=C4c5cccc6[nH]c(Br)c(c56)C[C@H]4N(C)C3)(C(C)C)C(=O)N12.CS(=O)(=O)O [(+)-Bromocriptine methanesulfonate] | 60.6 ± 9.2% | 
N[C@@H](Cn1oc(=O)[nH]c1=O)C(=O)O [(+)-Quisqualic acid] | 106.4 ± 10.3% | 
CCCOc1ccccc1-c1nc2nn[nH]c2c(=O)[nH]1 [Zaprinast] |  | % 25 nM CA200645 binding [1]: 109.4 ± 6.4%
CCN(CC)C(=S)SSC(=S)N(CC)CC [Tetraethylthiuram disulfide] | 88.1 ± 9.2% | 
O=C(O)c1cc(=O)c2c(Cl)cc(Cl)cc2[nH]1 [5,7-Dichlorokynurenic acid] | 100.9 ± 8.8% | 
CCCCc1ccc(C(=O)O)nc1 [Fusaric acid] | 66.5 ± 29.0% | 
NCCS(=O)O [Hypotaurine] | 94.6 ± 26.1% | 
CN1CCC(c2c[nH]c3ccc(O)cc23)CC1.O=C(O)/C=C\C(=O)O [BRL 54443 maleate] | 102.8 ± 6.2% | 
CC(C)NCC(O)COc1ccc(CCOCC2CC2)cc1 (stereo not drawn) [Betaxolol hydrochloride] | 98.4 ± 4.9% | 
Cl.NCCC[C@](N)(C(=O)O)C(F)F (racemic) | 103.2 ± 12.1% | 
Cl.NCC(O)c1cc(O)c(O)cc1F (stereo not drawn) [6-Fluoronorepinephrine hydrochloride] | 77.6 ± 28.4% | 
C#C[C@]1(O)CC[C@H]2[C@@H]3CCC4=Cc5nc6nc7ccccc7n6cc5C[C@]4(C)[C@H]3CC[C@@]21C [WIN 62,577] | 67.3 ± 5.6% | 
CC(C)(C)OC(=O)NC1[C@H]2CNC[C@@H]12 (stereo partly drawn) [CP-101537] | 102.3 ± 6.7% | 
O=C(O)Cc1c[nH]c2ccc(O)cc12 [5-Hydroxyindolacetic acid] | 102.3 ± 8.2% | 

From publication PMC5733478, “A Non-imaging High Throughput Approach to Chemical Library Screening at the Unmodified Adenosine-A3 Receptor in Living Cells” (Frontiers in Pharmacology, 2017)
